Patent publication US12679878B2, “CRF2 receptor agonists and their use in therapy” (SANOFI, priority 2020, dated 2026)
Starred links: 1 amine or outer side, 2 acyl side, 3 side chain; linkers in the order of their positions; H or OH if unused. Non-standard residues stand in square brackets, D forms with d. Residues, ends and D or L forms follow the SMILES beside them. Groups on a side chain read outwards from the residue. *: point of attachment. C18 diacid = O=C(O)CCCCCCCCCCCCCCCCC(=O)*; γGlu = O=C(O)[C@H](CCC(=O)[*:2])N[*:1]; AEEA = NCCOCCOCC(=O)O; Aib = CC(C)(N)C(=O)O

Target: T1, human CRF2α receptor (Homo sapiens, UniProt Q13324)
T1 construct: expressed in transfected cells; host or cells: TeloHEAC
T1 sequence (Q13324 1-411): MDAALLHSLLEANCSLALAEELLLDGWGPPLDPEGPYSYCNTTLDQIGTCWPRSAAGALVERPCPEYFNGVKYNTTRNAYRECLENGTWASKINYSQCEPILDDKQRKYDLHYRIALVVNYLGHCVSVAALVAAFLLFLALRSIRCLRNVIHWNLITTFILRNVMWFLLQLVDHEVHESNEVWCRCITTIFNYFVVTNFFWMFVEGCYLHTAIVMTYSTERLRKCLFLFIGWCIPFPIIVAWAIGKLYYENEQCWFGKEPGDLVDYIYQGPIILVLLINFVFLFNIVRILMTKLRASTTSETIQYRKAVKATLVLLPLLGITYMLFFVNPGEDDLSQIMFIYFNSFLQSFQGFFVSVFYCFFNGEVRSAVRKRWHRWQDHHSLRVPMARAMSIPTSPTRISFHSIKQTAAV
Assay: cAMP agonism at human CRF2 α receptor in TeloHEAC cells (Example 7)
Type: cell-based
Conditions: cAMP HTRF, TeloHEAC cells stably expressing human CRF2 α, 0% HSA; read-out: EC50 [nM], 0% HSA
Method: Agonism of compounds for human corticotropin-releasing factor 2α (CRF2 α receptor) was determined by functional assays measuring CAMP response of a TeloHEAC cell line stably expressing human CRF2 α receptor.
Cells were grown in a T175 culture flask placed at 37° C. to near confluence in medium (DMEM/10% FBS) and collected in 2 ml vials in cell culture medium containing 10% DMSO in a concentration of 10-50 million cells/ml. Each vial contained 1.8 ml cells. The vials were slowly frozen to −80° C. in isopropanol and then transferred in liquid nitrogen for storage. Prior to use, frozen cells were thawed quickly at 37° C. and washed (5 min at 900 rpm) with 20 ml cell buffer (1×HBSS; 20 mM HEPES; 0% or 0.1% HSA). Cells were resuspended in assay buffer (cell buffer plus 2 mM IBMX) and adjusted to a cell density of 1 million cells/ml. For measurement, 5 μl cells (final […]) and 5 μL of test compound were added to a 384-well plate, followed by incubation for 30 minutes at room temperature.
The CAMP content of cells was determined using a kit from Cisbio Corp. (cat. no. 62AM4PEC) based on HTRF (Homogenous Time Resolved Fluorescence). After addition of HTRF reagents diluted in lysis buffer (kit components), the plates were incubated for 1 h, followed by measurement of the fluorescence ratio at 665/620 nm. The percent activity value (E %) was calculated by setting 1000 nM of urocortin 2 (UCN2) as 100%. The in vitro potency of the compounds was quantified by determining the concentrations that caused 50% activation of maximal response (EC50).

EC50 [nM]	Compound
15.6	CC[C@H](C)[C@H](N)C(=O)N[C@H](C(=O)N[C@@H](CC(C)C)C(=O)N[C@@H](CO)C(=O)N[C@@H](CC(C)C)C(=O)N[C@@H](CC(=O)O)C(=O)N[C@H](C(=O)N1CCC[C@H]1C(=O)N[C@H](C(=O)N[C@@H](CCCCN)C(=O)N[C@@H](CC(C)C)C(=O)N[C@@H](CCCCNC(=O)COCCOCCNC(=O)COCCOCCNC(=O)CC[C@H](NC(=O)CCCCCCCCCCCCCCCCC(=O)O)C(=O)O)C(=O)N[C@@H](CCC(N)=O)C(=O)N[C@H](C(=O)N[C@@H](CC(C)C)C(=O)N[C@@H](CC(C)C)C(=O)N[C@@H](CCC(=O)O)C(=O)N[C@@H](CCC(N)=O)C(=O)N[C@@H](CCC(=O)O)C(=O)N[C@@H](CCCNC(=N)N)C(=O)N[C@@H](CCC(N)=O)C(=O)N[C@@H](CCCNC(=N)N)C(=O)N[C@@H](CCCCN)C(=O)N[C@@H](CCC(=O)O)C(=O)N[C@@H](CCCNC(=N)N)C(=O)N[C@@H](CCC(N)=O)C(=O)N[C@@H](CCC(N)=O)C(=O)N[C@@H](C)C(=O)N[C@@H](CCC(=O)O)C(=O)N[C@@H](CCCCN)C(=O)N[C@@H](CC(N)=O)C(=O)N[C@H](C(=O)N[C@@H](CCCNC(=N)N)C(=O)N[C@H](C(=O)N[C@@H](CC(C)C)C(=O)N[C@@H](CCC(=O)O)C(=O)N[C@@H](CCCNC(=N)N)C(=O)N[C@H](C(N)=O)C(C)C)[C@@H](C)CC)C(C)C)[C@@H](C)CC)[C@@H](C)CC)C(C)C)C(C)C [compound 41] (H-IVLSLDVPIKLK([AEEA-AEEA-γGlu-C18 diacid])QILLEQERQRKERQQAEKNVRILERV-NH2; N-terminus assumed)
15.4	CC[C@H](C)[C@H](N)C(=O)N[C@H](C(=O)N[C@@H](CC(C)C)C(=O)N[C@@H](CO)C(=O)N[C@@H](CC(C)C)C(=O)N[C@@H](CC(=O)O)C(=O)N[C@H](C(=O)N1CCC[C@H]1C(=O)N[C@H](C(=O)N[C@@H](CCCCN)C(=O)N[C@@H](CC(C)C)C(=O)N[C@@H](CCCCNC(=O)COCCOCCNC(=O)COCCOCCNC(=O)CC[C@H](NC(=O)CCCCCCCCCCCCCCCCC(=O)O)C(=O)O)C(=O)N[C@@H](CCC(N)=O)C(=O)N[C@H](C(=O)N[C@@H](CC(C)C)C(=O)N[C@@H](CC(C)C)C(=O)N[C@@H](CCC(=O)O)C(=O)N[C@@H](CCC(N)=O)C(=O)N[C@@H](CCC(=O)O)C(=O)N[C@@H](CCCNC(=N)N)C(=O)N[C@@H](CCC(N)=O)C(=O)N[C@@H](CCCNC(=N)N)C(=O)NC(C)(C)C(=O)N[C@@H](CCC(=O)O)C(=O)N[C@@H](CCCNC(=N)N)C(=O)N[C@@H](CCC(N)=O)C(=O)N[C@@H](CCC(N)=O)C(=O)N[C@@H](C)C(=O)N[C@@H](CCC(=O)O)C(=O)N[C@@H](CCCCN)C(=O)N[C@@H](CC(N)=O)C(=O)N[C@H](C(=O)N[C@@H](CCCNC(=N)N)C(=O)N[C@H](C(=O)N[C@@H](CC(C)C)C(=O)N[C@@H](CCC(=O)O)C(=O)N[C@@H](CCCNC(=N)N)C(=O)N[C@H](C(N)=O)C(C)C)[C@@H](C)CC)C(C)C)[C@@H](C)CC)[C@@H](C)CC)C(C)C)C(C)C [compound 42] (H-IVLSLDVPIKLK([AEEA-AEEA-γGlu-C18 diacid])QILLEQERQR[Aib]ERQQAEKNVRILERV-NH2)
